Measured values published in PMC5218480 (PLoS ONE, 2017).

System: MV-4-11 cells
Assay: Gene expression microarray analysis (Affymetrix PrimeView) and GSEA
Type: cell-based, human
Design: RFU PODN (11730768_x_at) / Fold change /veh PODN (11730768_x_at) / RFU LINC00158 (11744669_a_at) / Fold change /veh LINC00158 (11744669_a_at) / RFU DUSP10 (11751237_a_at) / Fold change /veh DUSP10 (11751237_a_at) / RFU ID3 (11757404_x_at) / Fold change /veh ID3 (11757404_x_at) / RFU PLEKHG5 (11737974_s_at) / Fold change /veh PLEKHG5 (11737974_s_at) / RFU LRRC4B (11730491_at) / Fold change /veh LRRC4B (11730491_at) / RFU GIMAP4 (11747438_a_at) / Fold change /veh GIMAP4 (11747438_a_at) / RFU KRT8 (11758183_x_at) / Fold change /veh KRT8 (11758183_x_at) / RFU CNN1 (11734310_a_at) / Fold change /veh CNN1 (11734310_a_at) / RFU VPS37D (11726825_at) / Fold change /veh VPS37D (11726825_at) / RFU C10orf10 (11716522_x_at) / Fold change /veh C10orf10 (11716522_x_at) / RFU KIR2DL2 /// KIR2DL4 /// KIR2DL5A /// KIR2DL5B /// KIR2DS1 /// KIR2DS2 /// KIR2DS3 /// KIR2DS4 /// KIR3DL3 /// KIR3DL3 /// KIR3DS1 (11738374_at) / Fold change /veh KIR2DL2 /// KIR2DL4 /// KIR2DL5A /// KIR2DL5B /// KIR2DS1 /// KIR2DS2 /// KIR2DS3 /// KIR2DS4 /// KIR3DL3 /// KIR3DL3 /// KIR3DS1 (11738374_at) / RFU C1QL1 (11718748_at) / Fold change /veh C1QL1 (11718748_at) / RFU TMPRSS4 (11747572_a_at) / Fold change /veh TMPRSS4 (11747572_a_at) / RFU HAMP (11756126_x_at) / Fold change /veh HAMP (11756126_x_at) / RFU RNFT2 (11725882_a_at) / Fold change /veh RNFT2 (11725882_a_at) / RFU NR4A2 (11747474_a_at) / Fold change /veh NR4A2 (11747474_a_at) / RFU ABCC12 (11746883_a_at) / Fold change /veh ABCC12 (11746883_a_at) / RFU TMEM136 (11760407_x_at) / Fold change /veh TMEM136 (11760407_x_at) / RFU CLDN22 /// WWC2 (11732394_at) / Fold change /veh CLDN22 /// WWC2 (11732394_at) / RFU HLA-DPB1 (11760878_x_at) / Fold change /veh HLA-DPB1 (11760878_x_at) / RFU SPINT1 (11716480_a_at) / Fold change /veh SPINT1 (11716480_a_at) / RFU GAP43 (11754022_s_at) / Fold change /veh GAP43 (11754022_s_at) / RFU A4GNT (11735810_at) / Fold change /veh A4GNT (11735810_at) / RFU PRB3 (11715151_x_at) / Fold change /veh PRB3 (11715151_x_at) / RFU TUBB4B (11761932_at) / Fold change /veh TUBB4B (11761932_at) / RFU CAPN14 (11732068_a_at) / Fold change /veh CAPN14 (11732068_a_at) / RFU TMCC2 (11721928_a_at) / Fold change /veh TMCC2 (11721928_a_at) / RFU IRGQ (11745062_a_at) / Fold change /veh IRGQ (11745062_a_at) / RFU FAM174B (11720279_a_at) / Fold change /veh FAM174B (11720279_a_at) / RFU TMPRSS4 (11748680_a_at) / Fold change /veh TMPRSS4 (11748680_a_at) / RFU FAM212B (11763350_a_at) / Fold change /veh FAM212B (11763350_a_at) / RFU PLEKHG5 (11743358_a_at) / Fold change /veh PLEKHG5 (11743358_a_at) / RFU ZSCAN30 (11745921_a_at) / Fold change /veh ZSCAN30 (11745921_a_at) / RFU CMKLR1 (11741424_a_at) / Fold change /veh CMKLR1 (11741424_a_at) / RFU LOC101060620 /// MAPK8IP1 (11723275_at) / Fold change /veh LOC101060620 /// MAPK8IP1 (11723275_at) / RFU SPTSSB (11747773_x_at) / Fold change /veh SPTSSB (11747773_x_at) / RFU PRSS12 (11739890_at) / Fold change /veh PRSS12 (11739890_at) / RFU BIN1 (11741810_x_at) / Fold change /veh BIN1 (11741810_x_at) / RFU WNT11 (11732464_a_at) / Fold change /veh WNT11 (11732464_a_at) / RFU C10orf10 (11716521_a_at) / Fold change /veh C10orf10 (11716521_a_at) / RFU C5orf56 (11738089_at) / Fold change /veh C5orf56 (11738089_at) / RFU CYB561 (11721691_x_at) / Fold change /veh CYB561 (11721691_x_at) / RFU ANKRD19P (11752326_a_at) / Fold change /veh ANKRD19P (11752326_a_at) / RFU OR2T12 /// OR2T33 /// OR2T8 (11738714_s_at) / Fold change /veh OR2T12 /// OR2T33 /// OR2T8 (11738714_s_at) / RFU VCAN (11748164_a_at) / Fold change /veh VCAN (11748164_a_at) / RFU JSRP1 (11732532_at) / Fold change /veh JSRP1 (11732532_at) / RFU KRTAP10-11 (11738290_x_at) / Fold change /veh KRTAP10-11 (11738290_x_at) / RFU MYO3A (11730013_a_at) / Fold change /veh MYO3A (11730013_a_at) / RFU EBF3 (11725865_a_at) / Fold change /veh EBF3 (11725865_a_at) / RFU CAMK2N1 (11719241_x_at) / Fold change /veh CAMK2N1 (11719241_x_at) / RFU C5orf56 (11738088_a_at) / Fold change /veh C5orf56 (11738088_a_at) / RFU OLFML3 (11715873_a_at) / Fold change /veh OLFML3 (11715873_a_at) / RFU LOC100653217 /// NTM (11731650_a_at) / Fold change /veh LOC100653217 /// NTM (11731650_a_at) / RFU MAPK11 (11762145_a_at) / Fold change /veh MAPK11 (11762145_a_at) / RFU FIZ1 (11724087_x_at) / Fold change /veh FIZ1 (11724087_x_at) / RFU OASL (11726364_x_at) / Fold change /veh OASL (11726364_x_at) / RFU SOX15 (11748057_x_at) / Fold change /veh SOX15 (11748057_x_at) / RFU CD79A (11719716_a_at) / Fold change /veh CD79A (11719716_a_at) / RFU HIST1H1D (11736915_at) / Fold change /veh HIST1H1D (11736915_at) / RFU CASKIN2 (11723855_a_at) / Fold change /veh CASKIN2 (11723855_a_at) / RFU LOC730098 (11760151_x_at) / Fold change /veh LOC730098 (11760151_x_at) / RFU OR4N2 (11742367_at) / Fold change /veh OR4N2 (11742367_at) / RFU PRRT2 (11749266_a_at) / Fold change /veh PRRT2 (11749266_a_at) / RFU SNX32 (11753110_a_at) / Fold change /veh SNX32 (11753110_a_at) / RFU CDHR5 (11726645_a_at) / Fold change /veh CDHR5 (11726645_a_at) / RFU RCAN1 (11760418_a_at) / Fold change /veh RCAN1 (11760418_a_at) / RFU FAM167A (11723789_a_at) / Fold change /veh FAM167A (11723789_a_at) / RFU FAM26E (11764081_at) / Fold change /veh FAM26E (11764081_at) / RFU ISYNA1 (11749810_s_at) / Fold change /veh ISYNA1 (11749810_s_at) / RFU ACY1 (11761880_at) / Fold change /veh ACY1 (11761880_at) / RFU 11764098_at / Fold change /veh 11764098_at / RFU SAMD14 (11745864_x_at) / Fold change /veh SAMD14 (11745864_x_at) / RFU NPB (11741838_a_at) / Fold change /veh NPB (11741838_a_at) / RFU TMPRSS6 (11731388_a_at) / Fold change /veh TMPRSS6 (11731388_a_at) / RFU KRTAP10-2 (11738614_at) / Fold change /veh KRTAP10-2 (11738614_at) / RFU ARHGAP8 /// PRR5-ARHGAP8 (11727945_x_at) / Fold change /veh ARHGAP8 /// PRR5-ARHGAP8 (11727945_x_at) / RFU KRTAP5-7 /// NADSYN1 (11734609_at) / Fold change /veh KRTAP5-7 /// NADSYN1 (11734609_at) / RFU RASL12 (11751679_a_at) / Fold change /veh RASL12 (11751679_a_at) / RFU CDKN2B (11736163_a_at) / Fold change /veh CDKN2B (11736163_a_at) / RFU PRF1 (11729649_at) / Fold change /veh PRF1 (11729649_at) / RFU, ZNF638 /// ZNF638-IT1 / Fold change vs veh, ZNF638 /// ZNF638-IT1 / RFU, PANK3 / Fold change vs veh, PANK3 / RFU, SH3YL1 / Fold change vs veh, SH3YL1 / RFU, ZEB2 / Fold change vs veh, ZEB2 / RFU, NRIP1 / Fold change vs veh, NRIP1 / RFU, PTTG1IP / Fold change vs veh, PTTG1IP / RFU, CAPN2 / Fold change vs veh, CAPN2 / RFU, MED14 / Fold change vs veh, MED14 / RFU, SNORA58 / Fold change vs veh, SNORA58 / RFU, C1orf63 / Fold change vs veh, C1orf63 / RFU, LRRFIP1 / Fold change vs veh, LRRFIP1 / RFU, NDUFAF7 / Fold change vs veh, NDUFAF7 / RFU, SLC12A2 / Fold change vs veh, SLC12A2 / RFU, IBTK / Fold change vs veh, IBTK / RFU, ESF1 / Fold change vs veh, ESF1 / Fold change vs veh, TMEM50B / RFU, TAOK1 / Fold change vs veh, TAOK1 / RFU, ACBD3 / Fold change vs veh, ACBD3 / RFU, TMA16 / Fold change vs veh, TMA16 / RFU, RWDD3 / Fold change vs veh, RWDD3 / RFU, BCAT1 / Fold change vs veh, BCAT1 / RFU, EDEM3 / Fold change vs veh, EDEM3 / RFU, TMEM33 / Fold change vs veh, TMEM33 / RFU, WDR75 / Fold change vs veh, WDR75 / RFU, AHCTF1 / Fold change vs veh, AHCTF1 / RFU, TFRC / Fold change vs veh, TFRC / RFU, ZDHHC17 / Fold change vs veh, ZDHHC17 / RFU, NOM1 / Fold change vs veh, NOM1 / RFU, ARL8B / Fold change vs veh, ARL8B / RFU, ZBTB11 / Fold change vs veh, ZBTB11 / RFU, TAMM41 / Fold change vs veh, TAMM41 / RFU, KIAA1704 /// LOC100996395 / Fold change vs veh, KIAA1704 /// LOC100996395 / RFU, ING1 / Fold change vs veh, ING1 / RFU, TRMT61B / Fold change vs veh, TRMT61B / RFU, FUBP3 / Fold change vs veh, FUBP3 / RFU, TP53 / Fold change vs veh, TP53 / RFU, TNKS2 / Fold change vs veh, TNKS2 / RFU, ZFP14 / Fold change vs veh, ZFP14 / RFU, ACTR2 / Fold change vs veh, ACTR2 / RFU, PPP3R1 / Fold change vs veh, PPP3R1 / RFU, PIK3R1 / Fold change vs veh, PIK3R1 / RFU, HNRNPA1 / Fold change vs veh, HNRNPA1 / RFU, RNF170 / Fold change vs veh, RNF170 / RFU, ZNF28 / Fold change vs veh, ZNF28 / RFU, RNGTT / Fold change vs veh, RNGTT / RFU, OGT / Fold change vs veh, OGT / RFU, BRD1 / Fold change vs veh, BRD1 / RFU, MARS / Fold change vs veh, MARS / RFU, ZNF655 / Fold change vs veh, ZNF655 / RFU, FAHD1 / Fold change vs veh, FAHD1 / RFU, BDP1 / Fold change vs veh, BDP1 / RFU, LRRCC1 / Fold change vs veh, LRRCC1 / RFU, ARID1A / Fold change vs veh, ARID1A / RFU, ZNF146 / Fold change vs veh, ZNF146 / RFU, ZNF330 / Fold change vs veh, ZNF330 / RFU, GPN3 / Fold change vs veh, GPN3 / RFU, C9orf123 / Fold change vs veh, C9orf123 / RFU, N4BP2L2 / Fold change vs veh, N4BP2L2 / RFU, ARFIP1 / Fold change vs veh, ARFIP1 / RFU, FAM179B / Fold change vs veh, FAM179B / RFU, BCL10 / Fold change vs veh, BCL10 / RFU, UHRF1BP1L / Fold change vs veh, UHRF1BP1L / RFU, BET1 / Fold change vs veh, BET1 / RFU, CNOT2 / Fold change vs veh, CNOT2 / RFU, ZNF268 / Fold change vs veh, ZNF268 / Fold change vs veh, ZNF507 / RFU, DGCR2 / Fold change vs veh, DGCR2 / RFU, WDSUB1 / Fold change vs veh, WDSUB1 / Fold change vs veh, HSP90B1 /// MIR3652 / RFU, ADSS / Fold change vs veh, ADSS / RFU, GK / Fold change vs veh, GK / RFU, ZNF148 / Fold change vs veh, ZNF148 / RFU, TAF9 / Fold change vs veh, TAF9 / RFU, SLC1A5 / Fold change vs veh, SLC1A5 / RFU, SLMO2 / Fold change vs veh, SLMO2 / RFU, ABCC4 / Fold change vs veh, ABCC4 / RFU, LOC101060439 /// RAP1B / Fold change vs veh, LOC101060439 /// RAP1B / RFU, RFX7 / Fold change vs veh, RFX7 / RFU, GTPBP10 / Fold change vs veh, GTPBP10 / RFU, CNEP1R1 / Fold change vs veh, CNEP1R1 / RFU, BIVM-ERCC5 /// ERCC5 / Fold change vs veh, BIVM-ERCC5 /// ERCC5 / RFU, ILF3 / Fold change vs veh, ILF3 / RFU 11762660_at / Fold change /veh 11762660_at / RFU VCAN (11757783_s_at) / Fold change /veh VCAN (11757783_s_at) / RFU DDX43 (11728927_at) / Fold change /veh DDX43 (11728927_at) / RFU KRT8 (11758188_x_at) / Fold change /veh KRT8 (11758188_x_at) / RFU NKD1 (11759106_at) / Fold change /veh NKD1 (11759106_at) / RFU SRD5A1 (11742802_a_at) / Fold change /veh SRD5A1 (11742802_a_at) / RFU TPSAB1 /// TPSB2 (11721975_s_at) / Fold change /veh TPSAB1 /// TPSB2 (11721975_s_at) / RFU GSTM3 (11746129_a_at) / Fold change /veh GSTM3 (11746129_a_at) / RFU IL23R (11737362_x_at) / Fold change /veh IL23R (11737362_x_at) / RFU TMEM51 (11727254_a_at) / Fold change /veh TMEM51 (11727254_a_at) / RFU PIWIL2 (11732686_x_at) / Fold change /veh PIWIL2 (11732686_x_at) / RFU ORM1 (11744905_x_at) / Fold change /veh ORM1 (11744905_x_at) / RFU CCDC152 (11743942_at) / Fold change /veh CCDC152 (11743942_at) / RFU ECM1 (11717891_a_at) / Fold change /veh ECM1 (11717891_a_at) / RFU IL23R (11748794_a_at) / Fold change /veh IL23R (11748794_a_at) / RFU TNFAIP8L3 (11732012_x_at) / Fold change /veh TNFAIP8L3 (11732012_x_at) / RFU MBOAT4 (11741988_at) / Fold change /veh MBOAT4 (11741988_at) / RFU 11764193_at / Fold change /veh 11764193_at / RFU TMEM53 (11763286_at) / Fold change /veh TMEM53 (11763286_at) / RFU MAGEB2 (11727129_at) / Fold change /veh MAGEB2 (11727129_at) / RFU TMEM200A (11744735_a_at) / Fold change /veh TMEM200A (11744735_a_at) / RFU CCDC152 (11751479_a_at) / Fold change /veh CCDC152 (11751479_a_at) / RFU FAM211A (11726209_a_at) / Fold change /veh FAM211A (11726209_a_at) / RFU RGS16 (11746705_a_at) / Fold change /veh RGS16 (11746705_a_at) / RFU VCAN (11755009_s_at) / Fold change /veh VCAN (11755009_s_at) / RFU RHOB (11743442_s_at) / Fold change /veh RHOB (11743442_s_at) / RFU RGS16 (11720943_a_at) / Fold change /veh RGS16 (11720943_a_at) / RFU RGS16 (11720944_at) / Fold change /veh RGS16 (11720944_at) / RFU, VPS4B / Fold change vs veh, VPS4B / RFU, CREB1 / Fold change vs veh, CREB1 / RFU, DNAJC13 / Fold change vs veh, DNAJC13 / RFU, GNAQ / Fold change vs veh, GNAQ / RFU, CDK5R1 / Fold change vs veh, CDK5R1 / RFU, ZRANB3 / Fold change vs veh, ZRANB3 / RFU, CUL4A / Fold change vs veh, CUL4A / RFU, CCNY / Fold change vs veh, CCNY / RFU, UFL1 / Fold change vs veh, UFL1 / RFU, COG3 / Fold change vs veh, COG3 / RFU, DIAPH2 / Fold change vs veh, DIAPH2 / RFU, SKA2 / Fold change vs veh, SKA2 / RFU, AFF3 / Fold change vs veh, AFF3 / RFU, LMF1 / Fold change vs veh, LMF1 / RFU, IPO11 / Fold change vs veh, IPO11 / RFU, DFFB / Fold change vs veh, DFFB / RFU, FOXP1 / Fold change vs veh, FOXP1 / RFU, CARD8 / Fold change vs veh, CARD8 / RFU, STRN3 / Fold change vs veh, STRN3 / RFU, ADK / Fold change vs veh, ADK / RFU, RASSF2 / Fold change vs veh, RASSF2 / RFU, WIPF1 / Fold change vs veh, WIPF1 / RFU, LARP1B / Fold change vs veh, LARP1B / RFU, RASA1 / Fold change vs veh, RASA1 / RFU, RB1 / Fold change vs veh, RB1 / RFU, PPFIA1 / Fold change vs veh, PPFIA1 / RFU, MAT2A / Fold change vs veh, MAT2A / RFU, CCT5 / Fold change vs veh, CCT5 / RFU, WDR92 / Fold change vs veh, WDR92 / RFU, CUX1 / Fold change vs veh, CUX1 / RFU, TTC7A / Fold change vs veh, TTC7A / RFU, TMEM135 / Fold change vs veh, TMEM135 / RFU, DEPTOR / Fold change vs veh, DEPTOR / RFU, CPM / Fold change vs veh, CPM / RFU, DNAJB6 / Fold change vs veh, DNAJB6 / RFU, CACNA2D3 / Fold change vs veh, CACNA2D3 / RFU, DTX4 / Fold change vs veh, DTX4 / RFU, TFCP2 / Fold change vs veh, TFCP2 / RFU, GMCL1 /// GMCL1P1 / Fold change vs veh, GMCL1 /// GMCL1P1 / RFU, AEBP2 / Fold change vs veh, AEBP2 / RFU, SNHG1 /// SNORD22 /// SNORD25 /// SNORD26 /// SNORD27 /// SNORD28 /// SNORD29 /// SNORD31 / Fold change vs veh, SNHG1 /// SNORD22 /// SNORD25 /// SNORD26 /// SNORD27 /// SNORD28 /// SNORD29 /// SNORD31 / Fold change (Aza/veh), C12orf56 (ProbeSet 11735607_a_at) / Fold change (ACY-1035/veh), C12orf56 (ProbeSet 11735607_a_at) / Fold change (Aza/veh), FGFR1OP (ProbeSet 11751329_s_at) / Fold change (ACY-1035/veh), FGFR1OP (ProbeSet 11751329_s_at) / Fold change (Aza/veh), VPS36 (ProbeSet 11739960_a_at) / Fold change (ACY-1035/veh), VPS36 (ProbeSet 11739960_a_at) / RFU SYPL1 (11715823_x_at) / Fold change /veh SYPL1 (11715823_x_at) / RFU IGFBP7 (11715501_s_at) / Fold change /veh IGFBP7 (11715501_s_at) / RFU REEP3 (11722064_at) / Fold change /veh REEP3 (11722064_at) / RFU IGLL1 (11728026_x_at) / Fold change /veh IGLL1 (11728026_x_at): dose or concentration left out as unconfirmed
Conditions: MV-4-11 cells, 48 hours

SMILES: Nc1ccc(-c2cccs2)cc1NC(=O)c1ccc2c(c1)cc(C1CC1)n2CCN1CCOCC1 [ACY-1035]
- RFU C1QL1 (11718748_at): 611.11 RFU
